The results in this text go back to patent US9375000B2, “Pesticidal arylpyrrolidines” (Bayer Intellectual Property GmbH, priority 2011, dated 2016).

Holding throughout (type): in vivo
Test [1] relates to Two-Spotted Spider Mite (Tetranychus urticae). Put plainly: Two-spotted spider mite (Tetranychus urticae) spray test on kidney bean. The settings on record: after 7 days. The procedure, abridged:
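Kidney bean plants at the two-leaf stage carried 50-100 adult mites and were sprayed one day later with compound in DMF/polyoxyethylene alkyl phenyl ether diluted in water. Ammonium salt and penetration enhancer at 1000 ppm were added if needed. Acaricidal activity (% mites killed) was scored after 7 days in a greenhouse.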

Test [2] concerns Cucurbit Leaf Beetle (Aulacophora femoralis). Put plainly: Cucurbit leaf beetle (Aulacophora femoralis) cucumber leaf dip test. The settings on record: after 7 days. The procedure, abridged:
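Cucumber leaves dipped in compound formulated with DMF and polyoxyethylene alkyl phenyl ether, diluted in water, with ammonium salt or ammonium salt plus penetration enhancer at 1000 ppm added if necessary; dried leaves placed on sterilized soil with five second-instar larvae. Kept at 25° C; larval mortality counted after 7 days.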

In test [3] the test system is Tobacco Cutworm (Spodoptera litura) Larvae. Put plainly: Tobacco cutworm (Spodoptera litura) larvae, sweet potato leaf dip test. The settings on record: dead larvae after 7 days. The protocol: (§1) Unless not mentioned otherwise, the test solutions were prepared as follows:
(§2) Solvent: 3 parts by weight Dimethylformamide
(§3) Emulsifier: 1 part by weight Polyoxyethylene alkyl phenyl ether
(§4) In order to make an appropriate formulation of an active compound, 1 part by weight of the active compound is mixed with the above mentioned amount of solvent and emulsifier and the mixture is diluted with water to a prescribed concentration. Ammonium salt or ammonium salt and penetration enhancer in a dosage of 1000 ppm are added to the desired concentration if necessary.
Leaves of sweet potato were immersed in the test solution at the appropriate concentration, and the leaves were dried in air. The leaves were then placed in a petri dish having a diameter of 9 cm, and ten Spodoptera litura at third instar larvae were released therein. The petri dishes were placed in a temperature-controlled chamber at 25° C. After 2 days and 4 days more sweet potato leaves were added. After 7 days, the number of dead larvae was counted to calculate the insecticidal activity. An insecticidal activity of 100% means that all larvae were killed, whereas an insecticidal activity of 0% means that no larva was killed. In the current test, the results of two petri dishes for each treatment were averaged.

The test system of test [4] is Larvae of Spodoptera litura. The test is described as follows: Larvae of Spodoptera litura, method using artificial feeds. The settings on record: artificial feed, after 7 days. The procedure, abridged:
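Compound formulated in dimethylformamide with polyoxyethylene alkyl phenyl ether emulsifier, water-diluted and poured onto artificial diet. Five 3rd-instar Spodoptera litura larvae per cup, held at 25° C and 50-60% humidity. Mortality after 7 days expressed as pesticidal ratio.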

The next test has as its system Thrips palmi. Put plainly: Thrips palmi spray test (THRIPL). The conditions noted are these: active compound concentration 20 ppm; after 6 days. The protocol: as §1, §2, §3, §4
The compound solutions are sprayed to a cucumber seedling (Cucumis sativus). After drying, the treated plant is placed in a plastic stand. About 100 thrips-eggs (Thrips palmi) on a piece of filter paper are attached to the plant and covered with a cage to keep 100% humidity. The plant is kept in a room at 23° C. After 6 days activity in % is evaluated by feeding damage degree. An insecticidal activity of 100 means that there was no feeding damage, whereas an insecticidal activity of 0% means that there is no difference to the untreated control.

[5] abbreviates: active compound concentration 4 ppm.
Setting [6] is: active compound concentration 20 ppm.

In turn, `O=C(CC(F)(F)F)NCc1ccc(N2CCC(c3cc(Cl)cc(Cl)c3)(C(F)(F)F)C2O)cc1F` (mixture of isomers) [A1-101] yielded an acaricidal activity in test [1] (setting [5]) of 100%. The figures for the insecticidal activity in test [2] (setting [6]) and in test [3] (setting [5]) were 100% and 80%, respectively.

In the case of `CCC(=O)NCc1ccc(N2CCC(c3cc(Cl)c(Cl)c(Cl)c3)(C(F)(F)F)C2O)cc1CC` (mixture of isomers) [A1-140], the acaricidal activity in test [1] (setting [5]) turned out to be 98%. In addition, the insecticidal activity in test [3] (setting [5]) is on record as 100%.

Regarding `CCC(=O)NCc1ccc(N2CCC(c3cc(C(F)(F)F)cc(C(F)(F)F)c3)(C(F)(F)F)C2O)cc1CC` (mixture of isomers) [A1-195], the acaricidal activity in test [1] (setting [5]) is given as 100%. Moreover, the insecticidal activity in test [2] (setting [6]) and in test [3] (setting [5]) was 100% throughout.

`CCC(=O)NC(C)c1ccc(N2CCC(c3cc(Cl)c(Cl)c(Cl)c3)(C(F)(F)F)C2O)cc1` (mixture of isomers) [A2-13] showed an acaricidal activity in test [1] (setting [6]) of 100%. For the same compound, the “insecticidal activity (pesticidal ratio)” value in test [4] (setting [6]) is recorded as 100%. Moreover, the insecticidal activity in test [3] (setting [6]) is reported as 100%.

Turning to `CCC(=O)NCc1ccc(N2CCC(c3cc(F)cc(Cl)c3)(C(F)(F)F)C2O)nc1C(F)(F)F` (mixture of isomers) [A3-167], in test [1] (setting [6]), the acaricidal activity is on record as 90%. Further, the insecticidal activity in test [3] (setting [5]) turned out to be 80%.

As to `CCC(=O)NCc1ccc(N2CCC(c3cc(F)c(F)c(F)c3)(C(F)(F)F)C2O)nc1C(F)(F)F` (mixture of isomers) [A3-189], the insecticidal activity turned out to be 100% in test [2] (setting [6]) and 80% in test [3] (setting [5]).

On to `O=C(NCc1ccc(N2CCC(c3cc(F)c(F)c(F)c3)(C(F)(F)F)C2O)nc1C(F)(F)F)C1CC1` (mixture of isomers) [A3-192], for which the insecticidal activity in test [2] (setting [6]) and in test [3] (setting [5]) was 100% in each case.

Consider `CC(=O)NCc1ccc(N2CCC(c3cc(Cl)c(F)c(Cl)c3F)(C(F)(F)F)C2O)nc1C(F)(F)F` (mixture of isomers) [A3-210], for which the acaricidal activity in test [1] (setting [5]) is given as 100%. Further, the insecticidal activity in test [2] (setting [6]) and in test [3] (setting [5]) was 100% each time.

Turning to `CC(=O)NCc1ccc(N2CCC(c3cc(Cl)c(F)c(Cl)c3)(C(F)(F)F)C2O)cc1C(F)(F)F` (stereo not shown) [A1-271], the acaricidal activity in test [1] (setting [5]) stood at 100%. Besides, the insecticidal activity in test [3] (setting [5]) is listed as 100%.

`CC(=O)NCc1ccc(N2CCC(c3cc(Cl)c(Cl)c(C(F)(F)F)c3)(C(F)(F)F)C2O)cc1C(F)(F)F` (stereo not shown) [A1-348] returned an acaricidal activity in test [1] (setting [6]) of 100%. The insecticidal activity in test [2] (setting [6]) and in test [3] (setting [5]) was 100% in each case.

In turn, `CCC(=O)NCc1ccc(N2CCC(c3cc(Cl)c(Cl)c(C(F)(F)F)c3)(C(F)(F)F)C2O)cc1C(F)(F)F` (stereo not shown) [A1-349] showed an acaricidal activity in test [1] (setting [6]) of 100%. Besides, the insecticidal activity in test [2] (setting [6]) and in test [3] (setting [5]) was 100% throughout.

In test [1] (setting [6]), `O=C(NCc1ccc(N2CCC(c3cc(Cl)c(Cl)c(C(F)(F)F)c3)(C(F)(F)F)C2O)cc1C(F)(F)F)C1CC1` (stereo not shown) [A1-352] had an acaricidal activity of 100%. The insecticidal activity in test [2] (setting [6]) and in test [3] (setting [5]) was 100% in each case.

`O=C(NCc1ccc(N2CCC(c3cc(Cl)c(Cl)c(Cl)c3)(C(F)(F)F)C2O)nc1C(F)(F)F)C1CC1` (stereo not shown) [A3-16] displayed an acaricidal activity in test [1] (setting [6]) of 100%. For the same compound, the insecticidal activity in test [2] (setting [6]) and in test [3] (setting [6]) was 100% in each case. Moreover, in test [4] (setting [6]), the “insecticidal activity (pesticidal ratio)” value turned out to be 100%.

Consider `O=C(NCc1ccc(N2CCC(c3cc(C(F)(F)F)cc(C(F)(F)F)c3)(C(F)(F)F)C2O)nc1C(F)(F)F)C1CC1` (stereo not shown) [A3-27], for which, in test [1] (setting [6]), the acaricidal activity is 100%. The insecticidal activity in test [2] (setting [6]) and in test [3] (setting [6]) was 100% throughout. Also, the “insecticidal activity (pesticidal ratio)” value in test [4] (setting [6]) was determined as 100%.

Compound `CCc1nc(N2CCC(c3cc(Cl)c(Cl)c(Cl)c3)(C(F)(F)F)C2O)ccc1CNC(=O)C1CC1` (stereo not shown) [A3-93] yielded an acaricidal activity in test [1] (setting [6]) of 100%. In addition, the insecticidal activity in test [2] (setting [6]) and in test [3] (setting [5]) was 100% in each case.

On to `CCC(=O)NCc1cnc(N2CCC(c3cc(Cl)cc(Cl)c3)(C(F)(F)F)C2O)nc1C(F)(F)F` (stereo not shown) [A4-2], for which the insecticidal activity in test [3] (setting [5]) worked out at 100%.

As for `CS(=O)(=O)CC(=O)NCc1cnc(N2CCC(c3cc(Cl)cc(Cl)c3)(C(F)(F)F)C2O)nc1C(F)(F)F` (stereo not shown) [A4-11], the “insecticidal activity (by feeding damage degree)” value with Thrips palmi is given as 90%. Besides, the acaricidal activity in test [1] (setting [5]) stood at 100%. In test [3] (setting [5]), this compound had an insecticidal activity of 100%.

`CC(=O)NCc1cnc(N2CCC(c3cc(Cl)c(Cl)c(Cl)c3)(C(F)(F)F)C2O)nc1C(F)(F)F` (stereo not shown) [A4-12]: the “insecticidal activity (by feeding damage degree)” value with Thrips palmi is listed as 90%. This compound also displayed an acaricidal activity in test [1] (setting [5]) of 100%. The insecticidal activity in test [3] (setting [5]) is given as 100%.

With `CC(=O)NCc1cnc(N2CCC(c3cc(Cl)c(F)c(Cl)c3F)(C(F)(F)F)C2O)nc1C(F)(F)F` (stereo not shown) [A4-111], the acaricidal activity in test [1] (setting [5]) is 100%. Also, the insecticidal activity in test [2] (setting [6]) and in test [3] (setting [5]) was 100% throughout.

With `CCC(=O)NCc1cnc(N2CCC(c3cc(C(F)(F)F)cc(C(F)(F)F)c3)(C(F)(F)F)C2O)cc1C(F)(F)F` (stereo not shown) [A5-24], the “insecticidal activity (by feeding damage degree)” value with Thrips palmi is reported as 90%. In test [1] (setting [6]), this compound came in with an acaricidal activity of 100%. The insecticidal activity in test [2] (setting [5]) and in test [2] (setting [6]) was 100% in each case. The “insecticidal activity (pesticidal ratio)” value in test [4] (setting [5]) and in test [4] (setting [6]) was 100% throughout.

In the case of `O=C(CC(F)(F)F)NCc1cnc(N2CCC(c3cc(C(F)(F)F)cc(C(F)(F)F)c3)(C(F)(F)F)C2O)cc1C(F)(F)F` (stereo not shown) [A5-29], the “insecticidal activity (by feeding damage degree)” value in the test on Thrips palmi came out at 90%. Also, in test [1] (setting [6]), the acaricidal activity came out at 100%. In addition, the insecticidal activity in test [2] (setting [5]) and in test [2] (setting [6]) was 100% in each case. Besides, the “insecticidal activity (pesticidal ratio)” value in test [4] (setting [5]) and in test [4] (setting [6]) was 100% throughout.

In the case of `CS(=O)(=O)CC(=O)NCc1cnc(N2CCC(c3cc(C(F)(F)F)cc(C(F)(F)F)c3)(C(F)(F)F)C2O)cc1C(F)(F)F` (stereo not shown) [A5-33], in the test on Thrips palmi, the “insecticidal activity (by feeding damage degree)” value turned out to be 90%. In test [1] (setting [6]), this compound came in with an acaricidal activity of 98%. Besides, the insecticidal activity in test [2] (setting [5]) and in test [2] (setting [6]) was 100% each time. Moreover, the “insecticidal activity (pesticidal ratio)” value in test [4] (setting [5]) and in test [4] (setting [6]) was 100% each time.

Consider `CC(=O)NCc1cnc(N2CCC(c3cc(Cl)c(F)c(Cl)c3F)(C(F)(F)F)C2O)cc1C(F)(F)F` (stereo not shown) [A5-78], for which the acaricidal activity in test [1] (setting [5]) amounted to 100%. In addition, the insecticidal activity in test [2] (setting [6]) and in test [3] (setting [5]) was 100% throughout.

Take `O=C(NCc1ccc(N2CC(c3cc(Cl)c(Cl)c(Cl)c3)(C(F)(F)F)CC2O)nc1C(F)(F)F)C1CC1` (stereo not shown) [A′3-16]: the insecticidal activity in test [2] (setting [6]) and in test [3] (setting [5]) was 100% each time.

For the compound `O=C(NCc1ccc(N2CCC(c3cc(C(F)(F)F)cc(C(F)(F)F)c3)(C(F)(F)F)C2=O)cc1Cl)C1CC1` (stereo not shown) [B1-27], the “insecticidal activity (pesticidal ratio)” value in test [4] (setting [6]) amounted to 100%. For the same compound, the insecticidal activity in test [3] (setting [6]) came out at 100%.

For `O=C(NCc1ccc(N2CCC(c3cc(Cl)c(Cl)c(Cl)c3)(C(F)(F)F)C2=O)nc1C(F)(F)F)C1CC1` (stereo not shown) [B3-16], the “insecticidal activity (pesticidal ratio)” value in test [4] (setting [6]) is listed as 100%. The same compound had an insecticidal activity in test [3] (setting [6]) of 100%.

On to `O=C(NCc1ccc(N2CC(c3cc(C(F)(F)F)cc(C(F)(F)F)c3)(C(F)(F)F)CC2=O)nc1Cl)C1CC1` (stereo not shown) [C1-27], for which the insecticidal activity in test [2] (setting [6]) and in test [3] (setting [6]) was 100% in each case. Also, the “insecticidal activity (pesticidal ratio)” value in test [4] (setting [6]) is listed as 100%.

Consider `CC(NC(=O)C1CC1)c1ccc(N2CC(c3cc(C(F)(F)F)cc(C(F)(F)F)c3)(C(F)(F)F)CC2=O)cc1` (stereo not shown) [C2-27-b], for which the acaricidal activity in test [1] (setting [6]) was found to be 100%. Further, the insecticidal activity in test [2] (setting [6]) and in test [3] (setting [6]) was 100% each time. Also, the “insecticidal activity (pesticidal ratio)” value in test [4] (setting [6]) amounted to 100%.

As for `O=C(NCc1ccc(N2CC(c3cc(Cl)c(Cl)c(Cl)c3)(C(F)(F)F)CC2=O)nc1C(F)(F)F)C1CC1` (stereo not shown) [C3-16], the “insecticidal activity (pesticidal ratio)” value in test [4] (setting [6]) amounted to 100%. The compound also gave an insecticidal activity in test [3] (setting [6]) of 100%.
